Measured values from patent publication US9206193B2, “Substituted norindenoisoquinolines, syntheses thereof, and methods of use” (PURDUE RESEARCH FOUNDATION, priority 2010, dated 2015).
Like-named read-outs stand apart in the source and are kept apart here.

How the values were obtained:
SF-539 = test: NCI DTP antiproliferative screen, CNS SF-539; format: cell-based, human
Method: (§1) The norindenoisoquinolines are examined for antiproliferative activity in the National Cancer Institute's Developmental Therapeutics Program (DTP) (Boyd & Paull, Some Practical Considerations and Applications of the National Cancer Institute In Vitro Anticancer Drug Discovery Screen. Drug Development Res. 1995, 34, 91-109; Shoemaker, The NCI60 Human Tumour Cell Line Anticancer Drug screen. Nat. Rev. Cancer 2006, 6, 813-823). Each compound is evaluated against approximately 55 human cell lines representing leukemia, melanoma, and cancers of the lung, colon, brain, breast, ovary, prostate and kidney. After an initial one-dose assay at a single high dose (10^−5 M), only compounds that satisfy the pre-determined threshold inhibition criteria are selected for further 5-dose assay.

UACC-62 = test: NCI DTP antiproliferative screen, melanoma UACC-62; format: cell-based, human
Method: as §1

HOP-62 = test: NCI DTP antiproliferative screen, lung HOP-62; format: cell-based, human
Method: as §1

DU-145 = test: NCI DTP antiproliferative screen, prostate DU-145; format: cell-based, human
Method: as §1

MDA-MB-435 = test: NCI DTP antiproliferative screen, breast MDA-MB-435; format: cell-based; conditions: Homo sapiens
Method: as §1

HCT-116 = test: NCI DTP antiproliferative screen, colon HCT-116; format: cell-based, human
Method: as §1

[1] = tested on: all human cancer cell lines successfully tested; test: NCI DTP antiproliferative screen, mean graph midpoint; format: cell-based; conditions: average GI50 of all cell lines tested; values outside 10^-8 to 10^-4 M taken as the limits
Method: as §1

SN12C = test: NCI DTP antiproliferative screen, renal SN12C; format: cell-based, human
Method: as §1

Human recombinant Top1 = biological target: T1, Human recombinant Top1 (Homo sapiens, UniProt P11387); test: Topoisomerase I-mediated DNA cleavage reactions; format: biochemical; parameters: key to Top1 cleavage: 0: no activity; +: weak activity; ++: similar activity as CPT; +++ and ++++: greater activity than CPT; ++++: similar activity as 1 uM CPT; conditions: for Top1 cleavage: semiquantitative, relative to 1 uM CPT, concentrations ranging up to 10 uM
T1 construct: made in house
T1 sequence (P11387 1-765): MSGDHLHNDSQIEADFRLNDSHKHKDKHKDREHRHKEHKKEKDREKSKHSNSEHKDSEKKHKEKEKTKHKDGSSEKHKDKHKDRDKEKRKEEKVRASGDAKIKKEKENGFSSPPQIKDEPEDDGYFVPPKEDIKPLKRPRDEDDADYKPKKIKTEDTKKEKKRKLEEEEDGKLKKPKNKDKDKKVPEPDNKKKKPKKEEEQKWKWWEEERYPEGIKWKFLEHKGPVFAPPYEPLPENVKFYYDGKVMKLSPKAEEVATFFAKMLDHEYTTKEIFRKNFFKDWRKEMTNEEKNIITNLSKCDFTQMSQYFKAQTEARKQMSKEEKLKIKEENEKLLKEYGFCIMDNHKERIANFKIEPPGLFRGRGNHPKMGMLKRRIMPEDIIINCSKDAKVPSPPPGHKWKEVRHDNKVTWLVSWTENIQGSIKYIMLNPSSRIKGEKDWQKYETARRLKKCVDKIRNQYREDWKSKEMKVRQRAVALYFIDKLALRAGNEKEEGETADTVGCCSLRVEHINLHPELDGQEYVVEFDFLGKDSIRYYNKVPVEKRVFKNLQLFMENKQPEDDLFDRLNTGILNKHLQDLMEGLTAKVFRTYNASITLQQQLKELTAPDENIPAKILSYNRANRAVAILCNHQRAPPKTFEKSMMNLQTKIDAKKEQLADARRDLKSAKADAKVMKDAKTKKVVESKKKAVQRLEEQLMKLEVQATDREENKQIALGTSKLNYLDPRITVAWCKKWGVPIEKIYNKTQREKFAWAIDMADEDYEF
Method: Norindenoisoquinolines 14a-f are examined for induction of Top1-mediated DNA cleavage using a 117-bp DNA oligonucleotide encompassing the previously identified Top1 cleavage sites in the 161-bp fragment from pBluescript SK(−) phagemid DNA (Dexheimer & Pommier DNA Cleavage Assay for the Identification of Topoisomerase I Inhibitors. Nat. Protocol. 2008, 3, 1736-1750).
Human recombinant Top1 was purified from baculovirus as previously described.^46 DNA cleavage reactions were prepared as previously reported with the exception of the DNA substrate.^13 Briefly, a 117-bp DNA oligonucleotide (Integrated DNA Technologies) encompassing the previously identified Top1 cleavage sites in the 161-bp fragment from pBluescript SK(−) phagemid DNA was employed. This 117-bp oligonucleotide contains a single 5′-cytosine overhang, which was 3′-end labeled by fill-in reaction with [α-^32P]-dGTP in React 2 buffer (50 mM Tris-HCl, pH 8.0, […], 50 mM NaCl) with 0.5 units of DNA polymerase I (Klenow fragment, New England BioLabs). Unincorporated ^32P-dGTP was removed using mini Quick Spin DNA columns (Roche, Indianapolis, Ind.), and the eluate containing the 3′-end-labeled DNA substrate was collected. Approximately 2 nM of radiolabeled DNA substrate was incubated with recombinant Top1 in 20 μL of reaction buffer [10 mM Tris-HCl (pH 7.5), 50 mM KCl, 5 mM MgCl2, 0.1 mM EDTA, and 15 μg/ml BSA] at 25° C. for 20 min in the presence of various concentrations of compounds. The reactions were terminated by adding SDS (0.5% final concentration) followed by the addition of two volumes of loading dye (80% formamide, 10 mM sodium hydroxide, 1 mM sodium EDTA, 0.1% xylene cyanol, and 0.1% bromphenol blue). Aliquots of each reaction were subjected to 20% denaturing PAGE. Gels were dried and visualized by using a Phosphoimager and ImageQuant software (Molecular Dynamics). For simplicity, cleavage sites were numbered as previously described in the 161-bp fragment.

OVCAR-3 = test: NCI DTP antiproliferative screen, ovarian OVCAR-3; format: cell-based, human
Method: as §1

[2] = 117-bp DNA substrate, gel of FIG. 2
[3] = Homo sapiens, read-out: Cytotoxicity GI50 CNS SF-539
[4] = Homo sapiens, UACC-62, read-out: Cytotoxicity GI50 Melanoma UACC-62
[5] = Homo sapiens, OVCAR-3, read-out: Cytotoxicity GI50 Ovarian OVCAR-3
[6] = Homo sapiens, HOP-62, read-out: Cytotoxicity GI50 Lung HOP-62
[7] = Homo sapiens, DU-145, read-out: Cytotoxicity GI50 Prostate DU-145
[8] = MDA-MB-435, read-out: Cytotoxicity GI50 Breast MDA-MB-435
[9] = Homo sapiens, HCT-116, read-out: Cytotoxicity GI50 Colon HCT-116
[10] = Homo sapiens, SN12C, read-out: Cytotoxicity GI50 Renal SN12C

CC[C@@]1(O)C(=O)OCc2c1cc1n(c2=O)Cc2cc3ccccc3nc2-1 [CPT, camptothecin, reference compound]
GI50 (SF-539; Homo sapiens, Table 2, read-out: Cytotoxicity GI50 CNS SF-539): 10 nM | GI50 (UACC-62; Homo sapiens, UACC-62, Table 2, read-out: Cytotoxicity GI50 Melanoma UACC-62): 10 nM | GI50 (HOP-62; Homo sapiens, HOP-62, Table 2, read-out: Cytotoxicity GI50 Lung HOP-62): 10 nM | GI50 (DU-145; Homo sapiens, DU-145, Table 2, read-out: Cytotoxicity GI50 Prostate DU-145): 10 nM | GI50 (MDA-MB-435; MDA-MB-435, Table 2, read-out: Cytotoxicity GI50 Breast MDA-MB-435): 40 nM | GI50 (HCT-116; Homo sapiens, HCT-116, Table 2, read-out: Cytotoxicity GI50 Colon HCT-116): 30 nM | MGM (mean graph midpoint for growth inhibition) [1]: 0.0405 µM | GI50 (SN12C; Homo sapiens, SN12C, Table 2, read-out: Cytotoxicity GI50 Renal SN12C): 20 nM | 37 (T-G) cleavage site in Top1-mediated DNA cleavage pattern (Human recombinant Top1; [2]): observed | 44 (C-G) cleavage site in Top1-mediated DNA cleavage pattern (Human recombinant Top1; [2]): not | Top1 cleavage (Human recombinant Top1): ++++

COc1cc2c3c(n(CCCNCCO)c(=O)c2cc1OC)-c1cc2c(cc1C3=O)OCO2 [MJ-III-65, reference compound]
44 (C-G) cleavage site in Top1-mediated DNA cleavage pattern (Human recombinant Top1; [2]): seen | 62 (C-A) cleavage site in Top1-mediated DNA cleavage pattern (Human recombinant Top1; [2]): observed

COc1cc2cnc3c(c2cc1OC)Cc1c-3cc2c(c1CN1CCN(C)CC1)OCO2 [Compound 14d, 2,3-Dimethoxy-8,9-methylenedioxy-10-(4-methylpiperazin-1-yl)methyl-11H-indeno[1,2-c]isoquinoline]
melting point: 296 °C (dec.) | 106 (C-T) cleavage site in Top1-mediated DNA cleavage pattern (Human recombinant Top1; [2]): absent | Top1 cleavage (Human recombinant Top1): ++

COc1cc2cnc3c(c2cc1OC)Cc1c-3cc2c(c1C)OCO2 [Compound 15, 2,3-Dimethoxy-8,9-methylenedioxy-10-methyl-11H-indeno[1,2-c]isoquinoline]
GI50 (SF-539; [3]): 4600 nM | GI50 (UACC-62; [4]): 700 nM | GI50 (OVCAR-3; [5]): 5800 nM | GI50 (HOP-62; [6]): 7300 nM | melting point: 272 to 274 °C (dec.) | GI50 (DU-145; [7]): > 100000 nM | GI50 (MDA-MB-435; [8]): > 100000 nM | GI50 (HCT-116; [9]): 890 nM | MGM (mean graph midpoint for growth inhibition) [1]: 11.8 µM | GI50 (SN12C; [10]): > 100000 nM | 44 (C-G) cleavage site in Top1-mediated DNA cleavage pattern (Human recombinant Top1; [2]): seen | 97 (T-A) cleavage site in Top1-mediated DNA cleavage pattern (Human recombinant Top1; [2]): observed | 106 (C-T) cleavage site in Top1-mediated DNA cleavage pattern (Human recombinant Top1; [2]): observed | Top1 cleavage (Human recombinant Top1): ++

COc1cc2cnc3c(c2cc1OC)Cc1c-3cc2c(c1CN1CCOCC1)OCO2 [Compound 14e, 2,3-Dimethoxy-8,9-methylenedioxy-10-(4-morpholino)methyl-11H-indeno[1,2-c]isoquinoline]
GI50 (SF-539): 1800 nM | GI50 (UACC-62): ≥ 100000 nM | GI50 (OVCAR-3): 1700 nM | GI50 (HOP-62): 2100 nM | GI50 (DU-145): 1900 nM | GI50 (HCT-116): 1400 nM | MGM (mean graph midpoint for growth inhibition) [1]: 2.4 µM | GI50 (SN12C): 2300 nM | 106 (C-T) cleavage site in Top1-mediated DNA cleavage pattern (Human recombinant Top1; [2]): absent | Top1 cleavage (Human recombinant Top1): +

COc1cc2cnc3c(c2cc1OC)Cc1c-3cc2c(c1CN(C)C)OCO2 [Compound 14a, 2,3-Dimethoxy-8,9-methylenedioxy-10-(dimethylamino)methyl-11H-indeno[1,2-c]isoquinoline]
GI50 (SF-539; [3]): 14000 nM | GI50 (UACC-62; [4]): 12000 nM | GI50 (OVCAR-3; [5]): 1400 nM | GI50 (HOP-62; [6]): 6700 nM | melting point: 205 to 207 °C | GI50 (DU-145; [7]): 1600 nM | GI50 (MDA-MB-435; [8]): 16000 nM | GI50 (HCT-116; [9]): 1500 nM | MGM (mean graph midpoint for growth inhibition) [1]: 4.4 µM | GI50 (SN12C; [10]): 13000 nM | Top1 cleavage (Human recombinant Top1): +++

COc1cc2cnc3c(c2cc1OC)Cc1cc2c(cc1-3)OCO2 [Compound 5, reference compound]
44 (C-G) cleavage site in Top1-mediated DNA cleavage pattern (Human recombinant Top1; [2]): seen | 97 (T-A) cleavage site in Top1-mediated DNA cleavage pattern (Human recombinant Top1; [2]): observed | 106 (C-T) cleavage site in Top1-mediated DNA cleavage pattern (Human recombinant Top1; [2]): observed

COc1cc2cnc3c(c2cc1OC)Cc1c-3cc2c(c1CN(C)CCN(C)C)OCO2 [Compound 14f, 2,3-Dimethoxy-8,9-methylenedioxy-10-(N,N,N′-trimethylethylenediamino)methyl-11H-indeno[1,2-c]isoquinoline]
GI50 (SF-539): 11000 nM | GI50 (UACC-62): 730 nM | GI50 (OVCAR-3): 7400 nM | GI50 (HOP-62): 1500 nM | GI50 (DU-145): 3400 nM | GI50 (HCT-116): 1900 nM | MGM (mean graph midpoint for growth inhibition) [1]: 6.3 µM | GI50 (SN12C): > 100000 nM

COc1cc2cnc3c(c2cc1OC)Cc1c-3cc2c(c1CN1CCCC1)OCO2 [Compound 14b, 2,3-Dimethoxy-8,9-methylenedioxy-10-(pyrrolidin-1-yl)methyl-11H-indeno[1,2-c]isoquinoline]
GI50 (SF-539; [3]): 1900 nM | GI50 (UACC-62; [4]): 6700 nM | GI50 (OVCAR-3; [5]): 730 nM | GI50 (HOP-62; [6]): 1200 nM | melting point: 210 °C (dec.) | GI50 (DU-145; [7]): 730 nM | GI50 (MDA-MB-435; [8]): 2500 nM | GI50 (HCT-116; [9]): 640 nM | MGM (mean graph midpoint for growth inhibition) [1]: 2.3 µM | GI50 (SN12C; [10]): 4400 nM | Top1 cleavage (Human recombinant Top1): +++
